Several values for one entry are separate records, joined by “and”; a condition that tells them apart may be missing. Equal values may be shown once. Toxic doses and inconclusive results are not listed. How the source made its calls: active means survival T/C of 150% or more; inactive means T/C below 125% in these data.
Tested on: P388 leukemia ip, CD2F1 mice, survival T/C
Assay: NCI In Vivo Anticancer Drug Screen. Data for tumor model P388 Leukemia (intraperitoneal) in CD2F1 (CDF1) mice
Conditions: endpoint: median survival time, higher = longer survival
Procedure, shortened: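 Mice carrying the transplanted tumor received test compound or vehicle. Survival was recorded in each group, and the value is the treated-group measurement divided by that of the vehicle-treated control group.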

[1] = dose: 60.0 mg/kg/injection, schedule: Q01DX005 (ip), vehicle: saline
[2] = dose: 120.0 mg/kg/injection, schedule: Q01DX005 (ip), vehicle: saline
[3] = dose: 240.0 mg/kg/injection, schedule: Q01DX005 (ip), vehicle: saline
[4] = dose: 50.0 mg/kg/injection, schedule: Q01DX009 (ip), vehicle: saline with Tween-80
[5] = dose: 50.0 mg/kg/injection, schedule: Q01DX009 (ip), vehicle: saline
[6] = dose: 100.0 mg/kg/injection, schedule: Q01DX009 (ip), vehicle: saline with Tween-80
[7] = dose: 100.0 mg/kg/injection, schedule: Q01DX009 (ip), vehicle: saline
[8] = dose: 200.0 mg/kg/injection, schedule: Q01DX009 (ip), vehicle: saline with Tween-80
[9] = dose: 200.0 mg/kg/injection, schedule: Q01DX009 (ip), vehicle: saline
[10] = dose: 50.0 mg/kg/injection, schedule: Q01DX005 (ip), vehicle: saline with Tween-80
[11] = dose: 100.0 mg/kg/injection, schedule: Q01DX005 (ip), vehicle: saline with Tween-80
[12] = dose: 200.0 mg/kg/injection, schedule: Q01DX005 (ip), vehicle: saline with Tween-80
[13] = dose: 50.0 mg/kg/injection, schedule: Q01DX005 (ip), vehicle: Klucel (hydroxypropylcellulose) (HPC)
[14] = dose: 100.0 mg/kg/injection, schedule: Q01DX005 (ip), vehicle: Klucel (hydroxypropylcellulose) (HPC)
[15] = dose: 200.0 mg/kg/injection, schedule: Q01DX005 (ip), vehicle: Klucel (hydroxypropylcellulose) (HPC)
[16] = dose: 100.0 mg/kg/injection, schedule: Q04DX003 (ip), vehicle: saline with Tween-80
[17] = dose: 200.0 mg/kg/injection, schedule: Q04DX003 (ip), vehicle: saline with Tween-80
[18] = dose: 400.0 mg/kg/injection, schedule: Q04DX003 (ip), vehicle: saline with Tween-80
[19] = dose: 25.0 mg/kg/injection, schedule: Q01DX009 (ip), vehicle: Klucel (hydroxypropylcellulose) (HPC)
[20] = dose: 50.0 mg/kg/injection, schedule: Q01DX009 (ip), vehicle: Klucel (hydroxypropylcellulose) (HPC)
[21] = dose: 200.0 mg/kg/injection, schedule: Q01DX009 (ip), vehicle: Klucel (hydroxypropylcellulose) (HPC)
[22] = dose: 100.0 mg/kg/injection, schedule: Q01DX009 (ip), vehicle: Klucel (hydroxypropylcellulose) (HPC)
[23] = dose: 25.0 mg/kg/injection, schedule: Q01DX009 (ip), vehicle: saline with Tween-80
[24] = dose: 6.25 mg/kg/injection, schedule: Q01DX009 (ip), vehicle: saline with Tween-80
[25] = dose: 12.5 mg/kg/injection, schedule: Q01DX009 (ip), vehicle: saline with Tween-80

Measured: T/C

COc1cccc2c(=O)c(COC(C)=O)c(C)[nH]c12
inactive: [1] 112 % of control | [2] 112 % of control | [3] 112 % of control

N#C/C(=C\c1ccc(Cl)cc1)c1ccccc1
inactive: [4] 96 % of control | [5] 100 % of control | [6] 95 % of control | [7] 98 % of control and 96 % of control | [8] 98 % of control | [9] 99 % of control and 92 % of control | dose: 400.0 mg/kg/injection, schedule: Q01DX009 (ip), vehicle: saline with Tween-80 100 % of control | dose: 400.0 mg/kg/injection, schedule: Q01DX009 (ip), vehicle: saline 90 % of control and 91 % of control

Cc1ncc(CO)c2c1OC(C)(C)OC2
inactive: [10] 100 % of control | [11] 107 % of control | [12] 100 % of control

O=C(O)CCCc1cccc2c1CCCC2
inactive: [13] 102 % of control | [14] 100 % of control | [15] 100 % of control

CC1=CC2C(O)(CC3(COC(=O)/C=C/c4ccccc4)OC3C3C4C(C)(C)C4(OC(=O)/C=C/c4ccccc4)C(OC(=O)/C=C/c4ccccc4)C(C)C32O)C1=O (configuration not stated)
inactive: dose: 0.2 mg/kg/injection, schedule: Q01DX005 (ip), vehicle: saline + alcohol 100 % of control | dose: 0.4 mg/kg/injection, schedule: Q01DX005 (ip), vehicle: saline + alcohol 100 % of control | dose: 0.8 mg/kg/injection, schedule: Q01DX005 (ip), vehicle: saline + alcohol 100 % of control | dose: 1.6 mg/kg/injection, schedule: Q01DX005 (ip), vehicle: saline + alcohol 98 % of control | dose: 3.2 mg/kg/injection, schedule: Q01DX005 (ip), vehicle: saline + alcohol 104 % of control

COC(=O)C12CCc3cc(OC)ccc3C1=CC(=O)C2 (configuration not stated)
inactive: dose: 50.0 mg/kg/injection, schedule: Q04DX003 (ip), vehicle: saline with Tween-80 101 % of control | [16] 105 % of control | [17] 100 % of control | [18] 100 % of control

O=C(O)c1ccccc1SCCO
inactive: [19] 89 % of control | [20] 91 % of control | [21] 90 % of control

C1=CC2C3CCC(C3)C2C1 (configuration not stated)
inactive: [16] 113 % of control | [17] 100 % of control | [18] 104 % of control

C=CC(c1ccccc1)c1cc2c(cc1OCCC)OCO2 (configuration not stated)
inactive: [13] 98 % of control | [14] 96 % of control | [15] 105 % of control

Cc1ccc(Cl)cc1N=Cc1cccs1
inactive: [20] 97 % of control | [22] 105 % of control | [21] 108 % of control

CCN(CC)P(=O)(c1cccn1C)c1cccn1C
inactive: [4] 100 % of control | [6] 102 % of control | [8] 97 % of control

O=C(/C=C/c1cccs1)c1ccc(O)c(C(=O)O)c1
inactive: [23] 96 % of control | [4] 105 % of control | [6] 103 % of control

Nc1c(CNCc2nnn(Cc3ccccc3)c2N)nnn1Cc1ccccc1
inactive: [4] 96 % of control | [6] 93 % of control | [8] 93 % of control

C[CH2][Sn]([F])([CH2]C)[CH2]C
inactive: dose: 0.37 mg/kg/injection, schedule: Q01DX009 (ip), vehicle: saline with Tween-80 90 % of control | dose: 0.38 mg/kg/injection, schedule: Q01DX009 (ip), vehicle: Klucel (hydroxypropylcellulose) (HPC) 101 % of control and 96 % of control | dose: 0.75 mg/kg/injection, schedule: Q01DX009 (ip), vehicle: Klucel (hydroxypropylcellulose) (HPC) 104 % of control and 108 % of control and 96 % of control | dose: 0.75 mg/kg/injection, schedule: Q01DX009 (ip), vehicle: saline with Tween-80 105 % of control | dose: 1.5 mg/kg/injection, schedule: Q01DX009 (ip), vehicle: Klucel (hydroxypropylcellulose) (HPC) 102 % of control and 103 % of control and 114 % of control | dose: 1.5 mg/kg/injection, schedule: Q01DX009 (ip), vehicle: saline with Tween-80 100 % of control | dose: 3.0 mg/kg/injection, schedule: Q01DX009 (ip), vehicle: Klucel (hydroxypropylcellulose) (HPC) 109 % of control and 116 % of control

CC(=O)N(C(C)=O)N1C(=O)C2C3C=CC(C4CC34)C2C1=O (configuration not stated)
inactive: [20] 92 % of control | [22] 94 % of control

OC(C/C=C/c1ccccc1)(c1ccccc1)c1ccccc1
inactive: [5] 109 % of control | [7] 100 % of control | [9] 91 % of control

O=C(N=Nc1c(O)[nH]c2c(Cl)cc(Cl)cc12)C(=O)Nc1cccc(C(F)(F)F)c1
inactive: [24] 95 % of control | [25] 93 % of control | [23] 95 % of control

CCCCN1COC2CCCCC21 (configuration not stated)
inactive: dose: 25.0 mg/kg/injection, schedule: Q01DX005 (ip), vehicle: saline 113 % of control | dose: 100.0 mg/kg/injection, schedule: Q01DX005 (ip), vehicle: saline 121 % of control

COC1OCN(C(C)(C)C)CC1(C)C (configuration not stated)
inactive: dose: 15.0 mg/kg/injection, schedule: Q01DX009 (ip), vehicle: saline with Tween-80 95 % of control | dose: 30.0 mg/kg/injection, schedule: Q01DX009 (ip), vehicle: saline with Tween-80 102 % of control | dose: 60.0 mg/kg/injection, schedule: Q01DX009 (ip), vehicle: saline with Tween-80 121 % of control

Oc1ccccc1N=Nc1ccccc1O.[O]=[V]
inactive: dose: 3.13 mg/kg/injection, schedule: Q01DX009 (ip), vehicle: Klucel (hydroxypropylcellulose) (HPC) 99 % of control | dose: 6.25 mg/kg/injection, schedule: Q01DX009 (ip), vehicle: Klucel (hydroxypropylcellulose) (HPC) 107 % of control and 112 % of control | dose: 12.5 mg/kg/injection, schedule: Q01DX009 (ip), vehicle: Klucel (hydroxypropylcellulose) (HPC) 100 % of control and 106 % of control | [19] 90 % of control

COC(=O)/C=C\C(C)=C/C(=O)OC
inactive: [13] 100 % of control | [14] 99 % of control | [15] 99 % of control

CC(C)(C)[Si]1(C(C)(C)C)N([Si](C)(C)C)N1[Si](C)(C)C (configuration not stated)
inactive: [1] 106 % of control | [2] 100 % of control | [3] 105 % of control

CCN(CC)CCOc1ccc(C2=C(c3ccc(OC)cc3)Cc3cc(OC)ccc32)cc1
inactive: dose: 6.25 mg/kg/injection, schedule: Q01DX005 (ip), vehicle: saline with Tween-80 101 % of control | dose: 12.5 mg/kg/injection, schedule: Q01DX005 (ip), vehicle: saline with Tween-80 101 % of control | dose: 25.0 mg/kg/injection, schedule: Q01DX005 (ip), vehicle: saline with Tween-80 105 % of control | [10] 106 % of control | [11] 106 % of control | [12] 102 % of control

C=C([Se]c1ccccc1)C(C)(C)C
inactive: [4] 114 % of control | [6] 119 % of control

O=C1C=CC(=O)N1c1cccc2c1CCCC2
inactive: [24] 105 % of control | [25] 114 % of control
